Data on 24 compounds can be found in patent US4775674A, “Imidazoquinolinylether derivatives useful as phosphodiesterase and blood aggregation inhibitors” (Bristol-Myers Company, priority 1986, dated 1988).

≈ marks a conversion by molar mass, not a printed value. Like-named read-outs stand apart in the source and are kept apart here.

Experiment [1] deals with adenosine diphosphate (ADP)-induced platelet aggregation. Kind of experiment: In vitro inhibition of platelet aggregation, ADP-induced (rabbit platelet rich plasma). The format is cell-based. The settings on record: Oryctolagus cuniculus, ADP 0.5 mcg/ml, read-out: Platelet Inhibition In Vitro - Rabbit PRP EC50 vs. ADP. The method, then:
(§1) The aggregometer method of Born (1), as modified by Mustard, et al. (2) was used to assess the in vitro activity of the various compounds as to inhibition of adenosine diphosphate (ADP) and collagen-induced platelet aggregation. Platelet rich plasma (PRP) was separated by centrifugation from citrated (3.8 percent) rabbit blood. […] The various compounds tested were dissolved in dimethylsulfoxide (DMSO) so that 5 mcl added to the platelet rich plasma would yield the desired test concentration. Vehicle control trials were done and compared with aggregation induced in platelet rich plasma containing various concentrations of the test compounds. Dose response curves were obtained and Effective Concentration (EC50) values calculated.

For experiment [2], the system named is collagen-induced platelet aggregation. Kind of experiment: In vitro inhibition of platelet aggregation, collagen-induced (rabbit platelet rich plasma). Type of experiment: cell-based. Particulars: Oryctolagus cuniculus, collagen suspension 0.05 ml, read-out: Platelet Inhibition In Vitro - Rabbit PRP EC50 vs. collagen. The method, then:
as §1

Experiment [3] addresses T1, cAMP phosphodiesterase (human platelets) (Homo sapiens, UniProt Q14432).
T1 construct: enzynme obtained from human platelets; from tissue; host or cells: human platelets
Kind of experiment: Inhibition of cyclic AMP phosphodiesterase. Type of experiment: biochemical. The settings on record: PDE from human platelets. The method, then: This assay is carried out essentially as described by Thompson, et al., Methods in Enzymology, 38, 205-212 (1974). Briefly, tritium labeled cyclic adenosine monophosphate (cAMP) is incubated with a phosphodiesterase (PDE) enzynme obtained from human platelets which converts a portion of the cAMP to 5'AMP in culture tubes. This reaction is terminated by submerging the tubes in a boiling water bath after which they are placed on ice and an aliquot of snake venom is added to each tube. This, during a second incubation, converts the 5'AMP to adenosine. Ion exchange resin is added to bind the remaining cyclic AMP. The tubes are centrifuged to sediment the resin and a portion of the clear supernatent (which contains radioactive adenosine) is counted in a liquid scintillation counter. The cAMP phosphodiesterase inhibition activity of a test agent is determined by pre-incubating the PDE enzyme preparation with the test agent.

Experiment [4] concerns ferrets (right ventricular contractile force, blood pressure). Briefly: In vivo inotropic activity in ferrets. Set-up: species or system ferret. The settings on record: Mustela putorius, 1 h, intraduodenal. The method, then: This test is carried out in ferrets as follows. Fasted anesthetized ferrets are instrumented to study hemodynamic parameters as well as right ventricular contractile force (RVCF) using a Walton-Brodie open strain guage arch. Drugs are administered intraduodenally as solutions in DMSO (1 mL or less) and effects on myocardial contractile force and other parameters are monitored for 60 minutes after dosing. Changes in contractile force in response to drug treatment are expressed in terms of percent change from predose control.

Experiment [5] relates to platelet aggregation (Ex Vivo vs. ADP). Briefly: Inhibition of platelet aggregation following oral administration (Ex vivo). Type of experiment: in vivo. Particulars: Rattus norvegicus, rats, oral by gavage, 2 hours after dosing. The method, then:
This test is sometimes referred to in the art as an Ex vivo method and was initially described by Fleming, et al., Arch. Int. Pharmacodyn. Ther., 199, 164 (1972). Briefly, the assay is essentially carried out as follows.
Aggregometry is performed in vitro as previously described on platelet rich plasma samples obtained from rats dosed with either test compounds or the vehicle. In all cases, activity is determined 2 hours after the drug is administered orally at various doses by gavage as a suspension in […] plus a few drops of Tween 20.

The mark [6] stands for this setting: anesthetized ferret, 3 mg/kg, 60 minutes, vs predose control, read-out: Maximum Percentage Change Right Ventricular Contractile Force (RVCF).
The mark [7] stands for this setting: anesthetized ferret, 3 mg/kg, 60 minutes, read-out: Maximum Percentage Change Blood Pressure.

T1 sequence (Q14432 whole entry): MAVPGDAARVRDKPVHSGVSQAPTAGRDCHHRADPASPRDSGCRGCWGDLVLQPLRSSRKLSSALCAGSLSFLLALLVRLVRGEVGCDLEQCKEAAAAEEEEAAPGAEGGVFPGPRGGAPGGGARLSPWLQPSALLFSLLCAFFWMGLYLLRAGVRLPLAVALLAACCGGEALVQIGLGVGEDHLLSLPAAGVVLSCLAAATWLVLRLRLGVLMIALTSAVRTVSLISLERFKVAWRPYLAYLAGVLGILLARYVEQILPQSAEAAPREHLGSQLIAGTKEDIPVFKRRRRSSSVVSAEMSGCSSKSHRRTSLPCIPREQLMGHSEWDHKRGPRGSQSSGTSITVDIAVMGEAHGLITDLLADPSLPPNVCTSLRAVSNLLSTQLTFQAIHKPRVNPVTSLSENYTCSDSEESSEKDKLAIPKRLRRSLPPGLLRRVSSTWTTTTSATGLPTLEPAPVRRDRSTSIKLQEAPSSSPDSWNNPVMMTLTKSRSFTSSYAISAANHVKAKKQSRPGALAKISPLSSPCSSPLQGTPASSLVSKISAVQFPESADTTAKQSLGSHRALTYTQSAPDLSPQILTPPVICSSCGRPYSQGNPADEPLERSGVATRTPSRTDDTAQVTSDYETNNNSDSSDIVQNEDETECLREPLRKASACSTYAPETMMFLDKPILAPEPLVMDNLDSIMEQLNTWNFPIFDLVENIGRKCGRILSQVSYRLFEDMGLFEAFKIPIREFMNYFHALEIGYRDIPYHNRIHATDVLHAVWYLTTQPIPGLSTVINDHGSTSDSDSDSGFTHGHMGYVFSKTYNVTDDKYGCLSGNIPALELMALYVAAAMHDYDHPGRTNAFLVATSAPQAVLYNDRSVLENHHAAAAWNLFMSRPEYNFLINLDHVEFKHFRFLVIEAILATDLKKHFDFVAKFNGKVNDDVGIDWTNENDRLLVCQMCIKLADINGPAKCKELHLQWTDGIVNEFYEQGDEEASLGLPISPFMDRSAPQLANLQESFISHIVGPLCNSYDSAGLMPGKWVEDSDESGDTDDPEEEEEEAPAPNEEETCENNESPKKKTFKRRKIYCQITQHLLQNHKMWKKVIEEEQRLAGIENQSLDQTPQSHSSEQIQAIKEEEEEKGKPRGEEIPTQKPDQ

What is called EC50 is the concentration at which the effect is half-maximal. For orientation: IC50 means the midpoint of a concentration-inhibition curve. Take `O=C(CCCOc1ccc2nc3[nH]c(=O)[nH]c3cc2c1)N1CCN(c2ccccc2)CC1` [Example 26, 1-[4-[(2,3-Dihydro-2-oxo-1H-imidazo[4,5-b]quinolin-7-yl)oxy]-1-oxobutyl]-4-phenylpiperazine]: the EC50 was determined as 0.125 µg/mL (≈ 0.29 µM) in experiment [1] and 0.009 µg/mL (≈ 0.0209 µM) in experiment [2]. The compound further returned an IC50 in experiment [3] of 2 nM.
For `O=C(O)CCCCOc1ccc2nc3[nH]c(=O)[nH]c3cc2c1` [Example 8, 5-[(2,3-Dihydro-2-oxo-1H-imidazo[4,5-b]quinolin-7-yl)oxy]pentanoic Acid], the EC50 in experiment [1] and in experiment [2] was over 32 µg/mL each time.
For `O=C(CCCOc1ccc2nc3[nH]c(=O)[nH]c3cc2c1)NC1CCCCC1` [Example 18, N-Cyclohexyl-4-[(2,3-dihydro-2-oxo-1H-imidazo[4,5-b]quinolin-7-yl)oxy]butanamide], the EC50 was determined as 0.015 µg/mL (≈ 0.0407 µM) in experiment [1] and 0.0025 µg/mL (≈ 0.00679 µM) in experiment [2]. Further, the change in vivo at 3 mg/kg in experiment [4] (setting [6]) was 5%; in experiment [4] (setting [7]), -8%.
Regarding `Oc1nc2cc3cc(OCCCCc4nnnn4C4CCCCC4)ccc3[nH]c-2n1` [Example 36, 7-[4-(1-Cyclohexyl-1H-tetrazol-5-yl)butoxy]-1,3-dihydro-2H-imidazo[4,5-b]quinolin-2-one], the EC50 in experiment [2] was found to be 0.02 µg/mL (≈ 0.0491 µM). The IC50 in experiment [3] stood at 4 nM.
Turning to `COC(=O)CCCCOc1ccc2nc3[nH]c(=O)[nH]c3cc2c1` [Example 13, Methyl 5-[(2,3-Dihydro-2-oxo-1H-imidazo[4,5-b]quinolin-7-yl)oxy]pentanoate], the EC50 in experiment [1] was 0.3 µg/mL (≈ 0.951 µM).
Broadly, the ED50 is the dose at which the effect has come halfway, by size or by number of responders. A higher ED50 goes with a need for a large dose. As to `O=C(O)CCCOc1ccc2nc3[nH]c(=O)[nH]c3cc2c1` [Example 4, 4-[(2,3-Dihydro-2-oxo-1H-imidazo[4,5-b]quinolin-7-yl)oxy]butanoic Acid], the ED50 in experiment [5] came to 3.4 mg/kg. Also, the values for the change in vivo at 3 mg/kg in experiment [4] (setting [6]) and in experiment [4] (setting [7]) were 3 ± 5% and -3 ± 2%, respectively.
For `COC(=O)CCCOc1ccc2nc3[nH]c(=O)n(C)c3cc2c1` [Example 11, Methyl 4-[(2,3-Dihydro-1-methyl-2-oxo-1H-imidazo[4,5-b]quinolin-7-yl)oxy]butanoat] the same measures were 15.7 mg/kg, -10% and -4%.
Turning to `O=C(CCCOc1ccc2nc3[nH]c(=O)[nH]c3cc2c1)N1CCOCC1` [Example 15], the EC50 in experiment [2] amounted to 0.007 µg/mL (≈ 0.0196 µM). In addition, the change in vivo at 3 mg/kg in experiment [4] (setting [6]) was 2%; in experiment [4] (setting [7]), -5%.
For the compound `OCCN(CCO)c1nc(N2CCCCC2)c2nc(N(CCO)CCO)nc(N3CCCCC3)c2n1` [dipyridamole, reference compound], the EC50 in experiment [1] was over 512 µg/mL. Also, the 50% effective dose (ED50) in experiment [5] is over 100 mg/kg.
Regarding `COC(=O)CCCCOc1ccc2nc3nc(O)n(C)c3cc2c1` [Example 14, Methyl 5-[(2,3-Dihydro-1-methyl-2-oxo 1H-imidazo[4,5-b]quinolin-7-yl)oxy]pentanoate], the EC50 in experiment [1] is 3 µg/mL (≈ 9.11 µM). The IC50 in experiment [3] was 5000 nM.
In experiment [3], `O=C(O)COc1ccc2[nH]c3nc(O)nc-3cc2c1` [Example 7, 2-[(1,3-Dihydro-2-oxo-2H-imidazo[4,5-b]quinolin-7-yl)oxy]acetic Acid] came in with an IC50 of 70 nM.
Turning to `CN(C(=O)CCCCOc1ccc2nc3[nH]c(=O)n(C)c3cc2c1)C1CCCCCC1` [Example 28, N-Cycloheptyl-5-[(2,3-dihydro-1-methyl-2-oxo-1H-imidazo[4,5-b]quinolin-7-yl)oxy]-N-methylpentanamide], the EC50 in experiment [1] amounted to 0.06 µg/mL (≈ 0.141 µM). In experiment [3], this compound yielded an IC50 of 600 nM. Further, the change in vivo at 3 mg/kg in experiment [4] (setting [6]) was 27%; in experiment [4] (setting [7]), -12%.
On to `CCN(CC)CCOc1ccc2nc3[nH]c(=O)[nH]c3cc2c1` [Example 34, 7-[(2-Diethylamino)ethoxy]-1,3-dihydro-2H-imidazo[4,5-b]quinolin-2-one], for which the EC50 in experiment [1] was found to be 1.5 µg/mL (≈ 4.99 µM); in experiment [2], 0.4 µg/mL (≈ 1.33 µM).
As to `CC(C)N1CC(COc2ccc3nc4[nH]c(=O)[nH]c4cc3c2)OC1=O` (centres unmarked) [Example 41, 1,3-Dihydro-7-[[3-(1-methylethyl)-2-oxo-5-oxazolidinyl]methoxy]-2H-imidazo[4,5-b]quinolin-2-one], the EC50 stood at 3 µg/mL (≈ 8.76 µM) in experiment [1] and 7 µg/mL (≈ 20.4 µM) in experiment [2]. Half-maximal inhibition in experiment [3] (IC50) was put at 60 nM.
With `O=C(CCCOc1ccc2nc3[nH]c(=O)[nH]c3cc2c1)N1CCCCC1` [Example 24, 1-[4-[(2,3-Dihydro-2-oxo-1H-imidazo[4,5-b]quinolin-7-yl)oxy]-1-oxobutyl]piperidine], the EC50 in experiment [1] was determined as 0.04 µg/mL (≈ 0.113 µM). The same compound displayed an IC50 in experiment [3] of 20 nM. The change in vivo at 3 mg/kg in experiment [4] (setting [6]) is 32%; in experiment [4] (setting [7]), -19%.
For the compound `Cc1[nH]c(=O)c(C#N)cc1-c1ccncc1` [milrinone, reference compound], the change in vivo at 3 mg/kg in experiment [4] (read-out: Maximum Percentage Change Right Ventricular Contractile Force (RVCF)) came out at 52%.
Regarding `CCOC(=O)COc1ccc2nc3[nH]c(=O)[nH]c3cc2c1` [Example 12, Ethyl [(2,3-Dihydro-2-oxo-1H-imidazo[4,5-b]quinolin-7-yl)oxy]acetate], the EC50 in experiment [1] was 8 µg/mL (≈ 27.8 µM); in experiment [2], 2.5 µg/mL (≈ 8.7 µM).
In the case of `Cn1c(=O)[nH]c2nc3ccc(OCCCC(=O)O)cc3cc21` [Example 6, 4-[(2,3-Dihydro-1-methyl-2-oxo-1H-imidazo[4,5-b]quinolin-7-yl)oxy]butanoic Acid], the EC50 in experiment [1] and in experiment [2] was over 32 µg/mL each time. Also, the IC50 in experiment [3] was 600 nM.
Take `Cn1c(O)nc2nc3ccc(OCCCCC(=O)O)cc3cc21` [Example 9, 5-[(2,3-Dihydro-1-methyl-2-oxo-1H-imidazo[4,5-b]quinolin-7-yl)oxy]pentanoicAcid]: the EC50 in experiment [1] and in experiment [2] was over 32 µg/mL in each case. Moreover, in experiment [3], half-maximal inhibition (IC50) required 800 nM.
Turning to `Cn1c(=O)[nH]c2nc3ccc(OCCCC(=O)N4CCCCC4)cc3cc21` [Example 25, 1-[4-[(2,3-Dihydro-1-methyl-2-oxo-1H-imidazo[4,5-b]quinolin-7-yl)oxy]-1-oxobutyl]piperidine], the EC50 in experiment [1] was determined as 4 µg/mL (≈ 10.9 µM); in experiment [2] it was 0.8 µg/mL (≈ 2.17 µM).
`CN(C(=O)CCCCOc1ccc2nc3nc(O)n(C)c3cc2c1)C1CCCCC1` [Example 27, N-Cyclohexyl-5-[(2,3-dihydro-1-methyl-2-oxo-1H-imidazo[4,5-b]quinolin-7-yl)oxy]N-methylpentanamide]: the EC50 in experiment [1] came out at 0.06 µg/mL (≈ 0.146 µM). The same compound had a half-maximal inhibitory concentration (IC50) in experiment [3] of 500 nM. Besides, the change in vivo at 3 mg/kg is 35% in experiment [4] (setting [6]) and -24% in experiment [4] (setting [7]).
`CC(C)NCC(O)COc1ccc2nc3[nH]c(=O)[nH]c3cc2c1` (centres unmarked) [Example 43, 1,3-Dihydro-7-[2-hydroxy-3-[(1-methylethyl)amino]propoxy]-2H-imidazo[4,5-b]quinolin-2-one]: the EC50 in experiment [1] and in experiment [2] was over 32 µg/mL each time. In experiment [3], this compound returned an IC50 of 300 nM.
Consider `CC(C)(C)N1CC(COc2ccc3nc4[nH]c(=O)[nH]c4cc3c2)OC1=O` (centres unmarked) [Example 42, 7-[[3-(1,1-Dimethylethyl)-2-oxooxazolidin-5-yl]methoxy]-1H-imidazo[4,5-b]quinolin-2(3H)-one], for which the EC50 is 6 µg/mL (≈ 16.8 µM) in experiment [1] and 0.4 µg/mL (≈ 1.12 µM) in experiment [2]. In addition, in experiment [3], inhibition was half-maximal at 70 nM (IC50).
On to `CN(C(=O)CCCOc1ccc2nc3nc(O)n(C)c3cc2c1)C1CCCCCC1` [Example 23, N-Cycloheptyl-4-[(2,3-dihydro-1-methyl-2-oxo-1H-imidazo[4,5-b]quinolin-7-yl)oxy]-N-methylbutanamide], for which the EC50 came out at 0.03 µg/mL (≈ 0.0731 µM) in experiment [1] and 0.005 µg/mL (≈ 0.0122 µM) in experiment [2]. The IC50 in experiment [3] came to 30000 nM. Besides, the change in vivo at 3 mg/kg was 24% in experiment [4] (setting [6]) and -16% in experiment [4] (setting [7]).
